Values joined by “and” are separate entries in the source; they are usually repeats but may differ in a detail not shown here. Equal entries are not always repeated.
Key:
PDE10A [1] = settings: unlabeled compounds; cited from earlier work
PDE10A [2] = biological target: PDE10A (Rattus norvegicus, UniProt Q9QYJ6); settings: for Distribution, blood, MP-10 block / Distribution, cerebellum, MP-10 block / Distribution, fat, MP-10 block / Distribution, heart, MP-10 block / Distribution, kidney, MP-10 block / Distribution, liver, MP-10 block / Distribution, lung, MP-10 block / Distribution, muscle, MP-10 block / Distribution, striatum, MP-10 block / Distribution, total brain, MP-10 block: rats pretreated with MP-10 2.0 mg/kg 5 min prior to tracer; for striatal binding after blocking dose of MP-10: MP-10 2 mg/kg i.v. 5 min prior to tracer, p < 0.05
[3] = In vivo biodistribution and regional brain uptake in rats; settings: for Biodistribution, blood / Biodistribution, cerebellum / Biodistribution, fat / Biodistribution, heart / Biodistribution, kidney / Biodistribution, liver / Biodistribution, lung / Biodistribution, muscle / Biodistribution, striatum / Biodistribution, total brain: male SD rats, i.v.
PDE10A [4] = settings: NHP brain

PDE10A (Rattus norvegicus, UniProt Q9QYJ6), sequence (Q9QYJ6 whole entry): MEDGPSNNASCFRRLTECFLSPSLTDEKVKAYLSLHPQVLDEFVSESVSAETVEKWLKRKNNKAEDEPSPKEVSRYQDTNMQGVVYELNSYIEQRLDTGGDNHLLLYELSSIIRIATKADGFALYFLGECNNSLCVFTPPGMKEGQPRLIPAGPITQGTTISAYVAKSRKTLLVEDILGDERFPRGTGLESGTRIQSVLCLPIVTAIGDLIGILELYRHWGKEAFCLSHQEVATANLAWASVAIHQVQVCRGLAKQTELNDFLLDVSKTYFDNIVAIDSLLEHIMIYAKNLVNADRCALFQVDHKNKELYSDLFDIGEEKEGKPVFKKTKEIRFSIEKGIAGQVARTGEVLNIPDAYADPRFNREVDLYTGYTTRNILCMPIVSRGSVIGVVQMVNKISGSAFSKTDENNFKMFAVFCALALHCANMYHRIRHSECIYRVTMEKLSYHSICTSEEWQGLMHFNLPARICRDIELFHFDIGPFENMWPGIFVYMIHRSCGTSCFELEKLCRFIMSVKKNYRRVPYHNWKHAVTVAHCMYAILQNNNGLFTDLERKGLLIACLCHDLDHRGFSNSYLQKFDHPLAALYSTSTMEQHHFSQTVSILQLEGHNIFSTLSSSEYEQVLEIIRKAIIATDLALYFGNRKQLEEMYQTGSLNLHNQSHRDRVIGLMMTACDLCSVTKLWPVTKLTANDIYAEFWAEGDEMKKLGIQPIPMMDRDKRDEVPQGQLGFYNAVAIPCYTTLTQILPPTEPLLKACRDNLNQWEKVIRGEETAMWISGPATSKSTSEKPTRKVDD

COc1cc2ccccc2nc1COc1ccc(-c2nn(C)cc2-c2ccncc2)cc1 [Compound 1]
IC50 (PDE10A [1]): 0.4 ± 0.02 nM

COc1ccc2nc(COc3ccc(-c4nn(C)cc4-c4ccncc4)cc3)ccc2c1 [Compound 3]
IC50 (PDE10A [1]): 1.82 ± 0.25 nM

Cn1cc(-c2ccncc2)c(-c2ccc(OCc3nc4ccccc4cc3O[11CH3])cc2)n1 [[^11C]1, 3-(methoxy-^11C)-2-((4-(1-methyl-4-(pyridin-4-yl)-1H-pyrazol-3-yl)phenoxy)methyl)quinoline]
Distribution, blood, MP-10 block (PDE10A [2]; 30 min p.i.): 0.407 ± 0.026 %ID/gram
Distribution, cerebellum, MP-10 block (PDE10A [2]; 30 min p.i.): 0.119 ± 0.006 %ID/gram
Distribution, fat, MP-10 block (PDE10A [2]; 30 min p.i.): 1.353 ± 0.202 %ID/gram
Distribution, heart, MP-10 block (PDE10A [2]; 30 min p.i.): 0.340 ± 0.036 %ID/gram
Distribution, kidney, MP-10 block (PDE10A [2]; 30 min p.i.): 1.523 ± 0.162 %ID/gram
Distribution, liver, MP-10 block (PDE10A [2]; 30 min p.i.): 5.781 ± 0.696 %ID/gram
Distribution, lung, MP-10 block (PDE10A [2]; 30 min p.i.): 0.404 ± 0.024 %ID/gram
Distribution, muscle, MP-10 block (PDE10A [2]; 30 min p.i.): 0.257 ± 0.026 %ID/gram
Distribution, striatum, MP-10 block (PDE10A [2]; 30 min p.i.): 0.294 ± 0.013 %ID/gram
Distribution, total brain, MP-10 block (PDE10A [2]; 30 min p.i.): 0.128 ± 0.003 %ID/gram
decrease of striatum: cerebellum ratio by MP-10 pretreatment (PDE10A [2]; rats, MP-10 2 mg/kg 5 min prior to tracer, 30 min p.i.): 50%
striatal binding after blocking dose of MP-10 (PDE10A [2]; rats): significant reduction
Biodistribution, blood ([3]; 5 min p.i.): 0.679 ± 0.116 %ID/gram
Biodistribution, cerebellum ([3]; 5 min p.i.): 0.229 ± 0.039 %ID/gram
Biodistribution, fat ([3]; 5 min p.i.): 0.935 ± 0.462 %ID/gram
Biodistribution, heart ([3]; 5 min p.i.): 0.733 ± 0.039 %ID/gram
Biodistribution, kidney ([3]; 5 min p.i.): 4.354 ± 0.473 %ID/gram
Biodistribution, liver ([3]; 5 min p.i.): 11.005 ± 0.758 %ID/gram
Biodistribution, lung ([3]; 5 min p.i.): 1.602 ± 0.509 %ID/gram
Biodistribution, muscle ([3]; 5 min p.i.): 0.412 ± 0.064 %ID/gram
Biodistribution, striatum ([3]; 5 min p.i.): 0.488 ± 0.101 ^a %ID/gram
Biodistribution, total brain ([3]; 5 min p.i.): 0.231 ± 0.038 %ID/gram
Biodistribution, blood ([3]; 30 min p.i. (control)): 0.321 ± 0.021 %ID/gram
Biodistribution, cerebellum ([3]; 30 min p.i. (control)): 0.097 ± 0.016 %ID/gram
Biodistribution, fat ([3]; 30 min p.i. (control)): 0.851 ± 0.314 %ID/gram
Biodistribution, heart ([3]; 30 min p.i. (control)): 0.296 ± 0.038 %ID/gram
Biodistribution, kidney ([3]; 30 min p.i. (control)): 1.647 ± 0.459 %ID/gram
Biodistribution, liver ([3]; 30 min p.i. (control)): 7.345 ± 1.472 %ID/gram
Biodistribution, lung ([3]; 30 min p.i. (control)): 0.408 ± 0.083 %ID/gram
Biodistribution, muscle ([3]; 30 min p.i. (control)): 0.244 ± 0.073 %ID/gram
Biodistribution, striatum ([3]; 30 min p.i. (control)): 0.452 ± 0.086 ^a %ID/gram and 0.452 ± 0.086 %ID/gram
Biodistribution, total brain ([3]; 30 min p.i. (control)): 0.133 ± 0.024 %ID/gram
Biodistribution, blood ([3]; 60 min p.i.): 0.275 ± 0.028 %ID/gram
Biodistribution, cerebellum ([3]; 60 min p.i.): 0.064 ± 0.006 %ID/gram
Biodistribution, fat ([3]; 60 min p.i.): 0.500 ± 0.087 %ID/gram
Biodistribution, heart ([3]; 60 min p.i.): 0.199 ± 0.013 %ID/gram
Biodistribution, kidney ([3]; 60 min p.i.): 1.275 ± 0.141 %ID/gram
Biodistribution, liver ([3]; 60 min p.i.): 6.398 ± 0.945 %ID/gram
Biodistribution, lung ([3]; 60 min p.i.): 0.299 ± 0.042 %ID/gram
Biodistribution, muscle ([3]; 60 min p.i.): 0.142 ± 0.014 %ID/gram
Biodistribution, striatum ([3]; 60 min p.i.): 0.380 ± 0.048 ^a %ID/gram
Biodistribution, total brain ([3]; 60 min p.i.): 0.095 ± 0.008 %ID/gram
blood–brain-barrier penetration (PDE10A [4]): readily penetrate the blood–brain-barrier

Cn1cc(-c2ccncc2)c(-c2ccc(OCc3cc(O[11CH3])c4ccccc4n3)cc2)n1 [[^11C]2, 4-(methoxy-^11C)-2-((4-(1-methyl-4-(pyridin-4-yl)-1H-pyrazol-3-yl)phenoxy)methyl)quinoline]
Distribution, blood, MP-10 block (PDE10A [2]; 30 min p.i.): 0.343 ± 0.007 %ID/gram
Distribution, cerebellum, MP-10 block (PDE10A [2]; 30 min p.i.): 0.112 ± 0.011 %ID/gram
Distribution, fat, MP-10 block (PDE10A [2]; 30 min p.i.): 0.697 ± 0.219 %ID/gram
Distribution, heart, MP-10 block (PDE10A [2]; 30 min p.i.): 0.310 ± 0.040 %ID/gram
Distribution, kidney, MP-10 block (PDE10A [2]; 30 min p.i.): 1.072 ± 0.069 %ID/gram
Distribution, liver, MP-10 block (PDE10A [2]; 30 min p.i.): 4.723 ± 0.489 %ID/gram
Distribution, lung, MP-10 block (PDE10A [2]; 30 min p.i.): 0.362 ± 0.021 %ID/gram
Distribution, muscle, MP-10 block (PDE10A [2]; 30 min p.i.): 0.224 ± 0.012 %ID/gram
Distribution, striatum, MP-10 block (PDE10A [2]; 30 min p.i.): 0.175 ± 0.022 %ID/gram
Distribution, total brain, MP-10 block (PDE10A [2]; 30 min p.i.): 0.114 ± 0.007 %ID/gram
striatal binding after blocking dose of MP-10 (PDE10A [2]; rats): significant reduction
striatum: cerebellum ratio ([3]; SD rats, 60 min p.i.): 2.5 fold
Biodistribution, blood ([3]; 5 min p.i.): 0.268 ± 0.053 %ID/gram
Biodistribution, cerebellum ([3]; 5 min p.i.): 0.215 ± 0.031 %ID/gram
Biodistribution, fat ([3]; 5 min p.i.): 0.242 ± 0.065 %ID/gram
Biodistribution, heart ([3]; 5 min p.i.): 0.464 ± 0.023 %ID/gram
Biodistribution, kidney ([3]; 5 min p.i.): 2.340 ± 0.295 %ID/gram
Biodistribution, liver ([3]; 5 min p.i.): 7.080 ± 0.435 %ID/gram
Biodistribution, lung ([3]; 5 min p.i.): 0.890 ± 0.206 %ID/gram
Biodistribution, muscle ([3]; 5 min p.i.): 0.258 ± 0.035 %ID/gram
Biodistribution, striatum ([3]; 5 min p.i.): 0.352 ± 0.052 ^a %ID/gram
Biodistribution, total brain ([3]; 5 min p.i.): 0.210 ± 0.035 %ID/gram
Biodistribution, blood ([3]; 30 min p.i. (control)): 0.192 ± 0.075 %ID/gram
Biodistribution, cerebellum ([3]; 30 min p.i. (control)): 0.066 ± 0.023 %ID/gram
Biodistribution, fat ([3]; 30 min p.i. (control)): 0.371 ± 0.091 %ID/gram
Biodistribution, heart ([3]; 30 min p.i. (control)): 0.187 ± 0.042 %ID/gram
Biodistribution, kidney ([3]; 30 min p.i. (control)): 1.294 ± 0.268 %ID/gram
Biodistribution, liver ([3]; 30 min p.i. (control)): 10.085 ± 1.972 %ID/gram
Biodistribution, lung ([3]; 30 min p.i. (control)): 0.233 ± 0.045 %ID/gram
Biodistribution, muscle ([3]; 30 min p.i. (control)): 0.133 ± 0.035 %ID/gram
Biodistribution, striatum ([3]; 30 min p.i. (control)): 0.230 ± 0.030 ^a %ID/gram and 0.230 ± 0.030 %ID/gram
Biodistribution, total brain ([3]; 30 min p.i. (control)): 0.087 ± 0.016 %ID/gram
Biodistribution, blood ([3]; 60 min p.i.): 0.152 ± 0.030 %ID/gram
Biodistribution, cerebellum ([3]; 60 min p.i.): 0.046 ± 0.014 %ID/gram
Biodistribution, fat ([3]; 60 min p.i.): 0.278 ± 0.040 %ID/gram
Biodistribution, heart ([3]; 60 min p.i.): 0.121 ± 0.025 %ID/gram
Biodistribution, kidney ([3]; 60 min p.i.): 0.758 ± 0.112 %ID/gram
Biodistribution, lung ([3]; 60 min p.i.): 0.163 ± 0.027 %ID/gram
Biodistribution, muscle ([3]; 60 min p.i.): 0.084 ± 0.013 %ID/gram
Biodistribution, striatum ([3]; 60 min p.i.): 0.201 ± 0.037 ^a %ID/gram
Biodistribution, total brain ([3]; 60 min p.i.): 0.057 ± 0.008 %ID/gram
blood–brain-barrier penetration (PDE10A [4]): readily penetrate the blood–brain-barrier

Source: paper PMC4054929 (Bioorganic & medicinal chemistry, 2014)
